Values quoted from earlier work in article PMC6166790 (Nature, 2018).

Test system: CLR/RAMP2 or CLR/RAMP3

receptor response selectivity: selective AM responses
Substance: adrenomedullin [AM]
